According to patent publication US10662174B2, “BTK inhibitor” (Hubei Bio-Pharmaceutical Industrial Technological Institute …, priority 2015, dated 2020):

Biological target: T1, BTK kinase (Homo sapiens, UniProt Q06187)
T1 construct: purchased Invitrogen PR5442A
Assay: Assay of inhibition activity of BTK in vitro (HTRF kit, read on Envision)
Assay type: biochemical
Conditions: 1.0 nM BTK, 1 μM biotin-TK1 peptide, 20 μM ATP, 23° C., tested by Envision; read-out: BTK IC50
Method: Assay of Inhibition Activity of BTK In Vitro
The inhibition of compounds on BTK kinase was evaluated by […] detected by Envision, using the IC50 value of the compounds as index.
BTK kinase: Invitrogen-PR5442A
HTRF Assay Kit: Cisbio-62TKOPEJ
Plate for compound preparation: Greiner-781280
Cisbio HTRF Kit: Cisbio-62TKOPEJ
Centrifuge: Eppendorf-5810R
Bravo: Agilent Technologies-Bravo
Gradient Dilution of Compounds: […]
The test compound was dissolved with DMSO to be of 1 mM as a stock solution. Such a stock solution was diluted with DMSO by 10-fold, thereby obtaining an initial solution in a concentration of […] which was added into wells at the second column in a plate. 20 μL DMSO was added to other wells using Bravo. Then, 10 μL of the initial solution was transferred from wells at the second column to wells at the third column, followed by mixing obtained solution in the wells at the third column, thereby obtain a first diluted solution in a concentration of 1/3 μM. Subsequently, 10 μL of the first diluted solution was further transferred from wells at the third column to wells at the fourth column, followed by mixing obtained solution in the wells at the fourth column, thereby obtain a second diluted solution in a concentration of 1/9 μM. Such a three-fold serial dilution was performed 10 times, with 11 solutions in series diluted concentrations and a final diluted solution in a concentration of 0.017 nM obtained.
All diluted solutions were further diluted by 25-fold with ultrapure water, thus obtain test solutions, which were equilibrated at r.t. for 30 min before use.
To 2.5 μL of test solution, which was pipetted into each well of Assay plate using Bravo, 5 μL kinase mixture was added using the multi-channel pipettor. The mixture was centrifuged at 1000 rpm for 20 s, followed by incubation at 23° C. for 30 min. The reaction was initiated by 2.5 μL ATP mixture which was pipetted into the wells by Multidrop.
The reaction mixture of BTK kinase (10 μL) included 1.0 nM BTK, 1 μM biotin-TK1 peptide and 20 μM ATP. The reaction buffer included 50 mM Hepes (pH7.5), 10 mM MgCl2 and 0.01 mM […]. The kinase mixture was reacted in incubator at 23° C. for 90 mim.
The reaction was stopped by adding 10 μL Detection Reagent to each well of Assay plate, and the plate was left in incubator at 23° C. for 1 h before read on Envision.
Data analysis: The IC50 values of compounds were calculated using Excel fit.

T1 sequence (Q06187 whole entry): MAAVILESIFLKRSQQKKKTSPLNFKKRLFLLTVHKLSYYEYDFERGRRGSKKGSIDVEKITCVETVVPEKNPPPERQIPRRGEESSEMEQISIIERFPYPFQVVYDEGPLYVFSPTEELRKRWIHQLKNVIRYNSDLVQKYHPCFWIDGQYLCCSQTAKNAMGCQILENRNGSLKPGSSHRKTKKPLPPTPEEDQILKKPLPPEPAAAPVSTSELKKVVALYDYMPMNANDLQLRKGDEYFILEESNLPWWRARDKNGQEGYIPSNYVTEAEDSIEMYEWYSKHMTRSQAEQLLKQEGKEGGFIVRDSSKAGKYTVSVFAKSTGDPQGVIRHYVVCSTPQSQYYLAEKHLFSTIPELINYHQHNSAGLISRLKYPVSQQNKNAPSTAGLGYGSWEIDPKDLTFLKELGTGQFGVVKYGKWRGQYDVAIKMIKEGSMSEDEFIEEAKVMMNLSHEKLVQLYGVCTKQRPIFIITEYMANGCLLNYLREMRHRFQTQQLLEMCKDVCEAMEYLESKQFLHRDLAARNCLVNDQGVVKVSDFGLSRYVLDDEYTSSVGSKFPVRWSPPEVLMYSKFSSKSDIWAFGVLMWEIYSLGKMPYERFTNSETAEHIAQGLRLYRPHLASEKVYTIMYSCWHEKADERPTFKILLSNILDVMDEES

IC50 [nM]	Structure (SMILES)
< 100	C=CC(=O)NC1CCCC(n2nc(-c3ccc(Oc4ccccc4)cc3)c3c(N)n[nH]c(=O)c32)C1 (stereo not drawn) [Example 62]
< 100	C=CC(=O)N[C@H]1CC[C@H](n2nc(-c3ccc(Oc4ccccc4)cc3)c3c(N)n[nH]c(=O)c32)CC1 [Example 63]
< 100	C=CC(=O)N[C@H]1CC[C@@H](n2nc(-c3ccc(Oc4ccccn4)cc3)c3c(N)n[nH]c(=O)c32)CC1 [Example 65]
< 100	C=CC(=O)N1CCC[C@@H](n2nc(-c3ccc(C(=O)N4CCCC4)cc3)c3c(N)n[nH]c(=O)c32)C1 [Example 66]
1000 to 10000	C=CC(=O)N1CCCC(n2nc(-c3ccc(Oc4cccc(C)c4)cc3)c3c(N)n[nH]c(=O)c32)C1 (stereo not drawn) [Example 67]
< 100	C=CC(=O)Nc1cccc(-n2nc3c(=O)[nH]nc(N)c3c2-c2ccc(Oc3ccccc3)cc2)c1 [Example 69]
< 100	C=CC(=O)N1CC(n2nc(-c3ccc(Oc4ccccc4)cc3)c3c(N)n[nH]c(=O)c32)C1 [Example 73]
< 100	C=CC(=O)N1CCC[C@@H](n2nc(-c3ccc(OC4Cc5ccccc5C4)cc3)c3c(N)n[nH]c(=O)c32)C1 [Example 74]
100 to 1000	C=CC(=O)N1CCCC(c2c3c(=O)[nH]nc(N)c3nn2-c2ccc(Oc3ccccc3)cc2)C1 (stereo not drawn) [Example 78]
< 100	C=CC(=O)N1CCC[C@@H](n2nc(-c3ccc(OC4CCCC4)cc3)c3c(N)n[nH]c(=O)c32)C1 [Example 79]
< 100	C=CC(=O)N(C)[C@H]1CC[C@@H](n2nc(-c3ccc(Oc4ccccc4)cc3)c3c(N)n[nH]c(=O)c32)CC1 [Example 82]
100 to 1000	C=CC(=O)N1CCCC(n2nc(-c3ccc(Oc4ccccc4)cc3)c3c(N)nn(C)c(=O)c32)C1 (stereo not drawn) [Example 85]
1000 to 10000	C=CC(=O)N1CCCC(n2nc(-c3ccc(Oc4ccccc4)cc3)c3c(N)nn(CC)c(=O)c32)C1 (stereo not drawn) [Example 86]
1000 to 10000	C=CC(=O)N1CCCC(n2nc(-c3ccc(Oc4ccccc4)cc3)c3c(N)nn(CC(F)(F)F)c(=O)c32)C1 (stereo not drawn) [Example 87]

Further lines, the compound ahead of its results:

Structure (SMILES)	IC50 [nM]
CN(C)C/C=C/C(=O)N[C@H]1CC[C@@H](n2nc(-c3ccc(Oc4ccccn4)cc3)c3c(N)n[nH]c(=O)c32)CC1 [Example 64]	100 to 1000
C=CC(=O)N1CCCC(n2nc(-c3ccc(Oc4ccccn4)cc3)c3c(N)n[nH]c(=O)c32)C1 (stereo not drawn) [Example 68]	< 100
C=CC(=O)N1CCCC(n2nc(-c3ccc(Oc4ccccc4)cc3)c3c(N)noc(=O)c32)C1 (stereo not drawn) [Example 70]	1000 to 10000
C=CC(=O)N1CCCC(n2nc(-c3ccc(Oc4ccccc4F)cc3)c3c(N)n[nH]c(=O)c32)C1 (stereo not drawn) [Example 71]	< 100
C=CC(=O)N1CCCC(n2nc(-c3ccc(Oc4ccccc4)nc3)c3c(N)n[nH]c(=O)c32)C1 (stereo not drawn) [Example 72]	< 100
CN(C)C/C=C/C(=O)N1CCC[C@@H](n2nc(-c3ccc(OC4Cc5ccccc5C4)cc3)c3c(N)n[nH]c(=O)c32)C1 [Example 75]	< 100
N#CC(=CC1CC1)C(=O)N1CCC[C@@H](n2nc(-c3ccc(Oc4ccccc4)cc3)c3c(N)n[nH]c(=O)c32)C1 [Example 76]	< 100
C=CS(=O)(=O)N1CCC[C@@H](n2nc(-c3ccc(Oc4ccccc4)cc3)c3c(N)n[nH]c(=O)c32)C1 [Example 77]	< 100
C=CC(=O)N1CCC[C@@H](n2nc(-c3ccc(OC4CCCCC4)cc3)c3c(N)n[nH]c(=O)c32)C1 [Example 80]	< 100
CN(C)C/C=C/C(=O)N1CCC[C@@H](n2nc(-c3ccc(Oc4ccccc4)cc3)c3c(N)n[nH]c(=O)c32)C1 [Example 81]	< 100
C=CC(=O)N[C@H]1CC[C@@H](n2nc(-c3ccc(Oc4ccccc4F)cc3)c3c(N)n[nH]c(=O)c32)CC1 [Example 83]	< 100
CN(C)/C=C/CC(=O)N1CCCC(n2nc(-c3ccc(Oc4ccccc4)cc3)c3c(N)n[nH]c(=O)c32)C1 (stereo not drawn) [Example 84]	< 100
C=CC(=O)N1CCC[C@@H](n2nc(-c3ccc(-c4nc5ccccc5o4)cc3)c3c(N)n[nH]c(=O)c32)C1 [Example 88]	< 100
